US20220098197A1, “SALTS OF HETEROCYCLIC COMPOUND AND USE THEREOF” (priority 2019, published 2022)
Values after ≈ are worked out from the molar mass of the structure shown. Values joined by “and” are separate entries in the source; they are usually repeats but may differ in a detail not shown here. Identical values can stand only once. Like-named read-outs stand apart in the source and are kept apart here.

How the values were obtained:
[1] = Solubility test in media with different pH; type: physicochemical; details: for solubility: thermodynamic from solid, room temperature of 25° C.
Description: The hydrates obtained as above and the compound of formula A were tested for solubility in solutions with different pH. The test method was as follows.
1.1. Preparation of the Media with Different pH
pH1.0 medium: 9.0 mL of hydrochloric acid was diluted to 1000 mL with water and shaken well to obtain the medium.
pH4.5 medium: 6.80 g of potassium dihydrogen phosphate (KH2PO4) was dissolved in water and diluted to 1000 mL, adjusted to pH4.5 with phosphoric acid or sodium hydroxide, and shaken well to obtain the medium.
pH6.8 medium: 55.38 g of disodium hydrogen phosphate (Na2HPO4.12H2O) and 4.77 g of citric acid (C6H8O7.H2O) were dissolved in water and diluted to 1000 mL, adjusted to pH6.8 with phosphoric acid or sodium hydroxide, and shaken well to obtain the medium.
Pure water medium: purified water.
Test method: To a certain amount of test samples, the media with different pH were added gradually, respectively. The mixture was shaken continuously until it reached saturation. The weighing amount of the test sample and the amount of solvent were recorded and the concentration when the sample was dissolved was calculated.

[2] = Stability test (influencing factors: light, high temperature, high humidity); type: physicochemical; details: for stability under high temperature and high humidity conditions (in words): 60° C., 92.5% RH
Description: Test process: An appropriate amount of each test sample was placed on a clean watch glass without a lid and then placed under the conditions of light 4500 lx±500 lx, high temperature of 60° C., high humidity of 92.5% RH for 5 days and 10 days, respectively. The properties and related substances were determined and the results were compared with the results at day 0 to observe the stability.
The test method for related substances was as follows.
Preparation of test sample solution: About 10 mg of each test sample was placed in a 10 ml volumetric flask, and 50% acetonitrile aqueous solution was added to dissolve sample, and diluted to the mark, shaken well, and filtered to obtain the test sample solution. A precise amount of 10 μl of the test sample solution was taken and injected according to the above chromatographic method, and the maximum single impurity and total impurity were calculated according to the area normalization method.

[3] = Dissolution test of capsules (Chinese Pharmacopoeia 2015, General Method 0931, 2nd Method); type: physicochemical; details: for Dissolution rate, Mean (%), 5 min / Dissolution rate, Mean (%), 10 min / Dissolution rate, Mean (%), 15 min / Dissolution rate, Mean (%), 20 min / Dissolution rate, Mean (%), 30 min / Dissolution rate, Mean (%), 45 min: mean of 6 capsules; for Dissolution rate, Mean (%), 5 min / Dissolution rate, Mean (%), 10 min / Dissolution rate, Mean (%), 15 min / Dissolution rate, Mean (%), 20 min / Dissolution rate, Mean (%), 30 min / Dissolution rate, Mean (%), 45 min / Dissolution rate, 5 min / Dissolution rate, 10 min / Dissolution rate, 15 min / Dissolution rate, 20 min / Dissolution rate, 30 min / Dissolution rate, 45 min: purified water, 50 rpm; for Dissolution rate, 5 min / Dissolution rate, 10 min / Dissolution rate, 15 min / Dissolution rate, 20 min / Dissolution rate, 30 min / Dissolution rate, 45 min: single capsules 1-6, hydrate
Description: The hydrates obtained hereinabove and the compound of formula A were tested for dissolution rate. The test method was as follows.
Step 1: Pretreating Raw Materials
The samples were passed through a 100 mesh sieve.
Step 2: Blending Raw Materials with Auxiliary Materials
The raw materials and lactose were weighed according to the prescription, mixed in equal increment, sieved and mixed.
The capsules were filled via a capsule filling plate and sealed. The difference of the filling amount was controlled to ±5%. The appearance was inspected to ensure that the sealing was correct and there was no split or deformation.
Test method: dissolution test method (Chinese Pharmacopoeia, edited in 2015, Chapter 4, General Method 0931, the 2nd Method)
Dissolution medium: aqueous solution
Specific test method: The sample was tested following the dissolution test method (Chinese Pharmacopoeia, edited in 2015, Chapter 4, General Method 0931, the 2nd Method). 900 ml aqueous solution was used as the dissolution medium. The speed was 50 rpm. The test was performed in accordance with the method. […] After filtration, the filtrate was precisely measured and quantitatively diluted with the dissolution medium to prepare a solution containing about 10 μg of sample per 1 ml. The absorbance was measured by at 231 nm by UV-Vis spectrophotometry (Chinese Pharmacopoeia, edited in 2015, Chapter 4, General Method 0931, the 2nd Method). An appropriate amount of the control sample was taken, weighed accurately, dissolved in dissolution medium and diluted quantitatively to prepare a solution containing about 10 μg of the sample per 1 ml, and then measured in the same way. The amount of dissolution per capsule was calculated.

neutrophils [4] = experiment: PGD2-induced neutrophils migration, Boyden chamber assay (Example 1); type: cell-based, mice; details: pretreatment CT-NA 1 and 10 μM (p<0.01) or OC459; PGD2 1 μM; 4 hrs
Description: The mice were intragastrically administered glycogen (1.5%) at the dose range of 20 ml/kg of body weight. 4 hrs later, the mice were euthanized to isolate neutrophils from the peritoneal lavage. The effect of CT-NA on neutrophils migration was detected by using the Boyden chamber assay kit (3 μm pore size). PGD2 was used as a chemoattractant because the activated PGD2/CRTH2 receptors promoted the migration of neutrophils. Initially, the isolated neutrophils (4×10^5) were diluted in 100 μL HBSS and allowed to migrate toward PGD2 (0.1, 1 and 10 μM) for 4 hrs to find out the suitable PGD2 concentration. Then, the isolated neutrophils (4×10^5) were pretreated with CT-NA (1 and 10 μM), and their migration to PGD2 (1 μM) was evaluated by counting the migrated neutrophils. Moreover, another potent CRTH2 inhibitor OC459 was used to countercheck the outcomes of CT-NA.

neutrophils [5] = experiment: PGD2-induced neutrophils migration in vitro, Boyden chamber (Example 2); type: cell-based, mice; details: pretreatment CT-NA 1 μM or 10 μM, OC459 10 μM; 4 hrs; P<0.01
Description: The method for isolating neutrophils and testing effect of CT-NA on neutrophils migration was briefly described as follows. 1.5% glycogen was injected intragastrically into mice at a dose of 20 ml/kg body weight. 4 hrs later, the mice were euthanized to isolate neutrophils from the peritoneal lavage. Effect of CT-NA on the migration of neutrophils was detected using the Boyden chamber assay kit (3 um pore size, Billerica, Mass.). PGD2 was used as a chemoattractant because the activated PGD2/CRTH2 receptors promoted the neutrophils migration. Firstly, the isolated neutrophils were inoculated at 4×10^5 cells/ml into the upper side of well of the Boyden chamber, and the lower chamber contained different concentrations of PGD2 (0.1, 1 and 10 μM), and the neutrophils were allowed to migrate towards PGD2 for 4 hrs at 37° C. in order to find out the suitable PGD2 concentration. After evaluation of the suitable PGD2 concentration, the migration of neutrophils pretreated with CT-NA (1 and 10 μM) and OC459 (10 μM), another effective CRTH2 inhibitor, toward PGD2 (1 μM) was assessed for 4 hrs.

[6] = high temperature 60° C., Day 10
[7] = light condition 4500 lx±500 lx, Day 5
[8] = light condition 4500 lx±500 lx, Day 10

## CN([C@@H]1CCc2c(CC(=O)O)c3cccnc3n2C1)S(=O)(=O)c1ccc(F)cc1 (racemic) [Compound A]
[1]; pH 1.0, 4.5, 6.8 and purified water
  water solubility at different pH (comparison in words): poor water solubility
[1]; pH 1.0 medium (dilute hydrochloric acid), pH 1, simulated gastric fluid, pH1.0 medium, read-out: Solubility, pH = 1.0
  solubility: 1.25 µg/mL (≈ 2.99 µM)
[1]; pH 4.5 medium (potassium dihydrogen phosphate solution), pH 4.5, aqueous buffer, pH4.5 medium, read-out: Solubility, pH = 4.5
  solubility: 1.67 µg/mL (≈ 4 µM)
[1]; pH 6.8, aqueous buffer, pH6.8 medium, read-out: Solubility, pH = 6.8
  solubility: 2 µg/mL (≈ 4.79 µM)
[1]; purified water, read-out: Solubility, purified water
  solubility: 2 µg/mL (≈ 4.79 µM)
[1]; water
  solubility in water (in words): insoluble in water
[2]; 5 and 10 days
  stability under high temperature and high humidity conditions (in words): relatively stable
[2]; Day 0
  maximum single impurity %: 0.08%
  property: white powder
  total impurity %: 0.32%
[2]; high humidity 92.5% RH, Day 5
  maximum single impurity %: 0.08%
  property: white powder
  total impurity %: 0.31%
[2]; high humidity 92.5% RH, Day 10
  maximum single impurity %: 0.07%
  property: white powder
  total impurity %: 0.26%
[2]; high temperature 60° C., Day 5
  maximum single impurity %: 0.07%
  property: white powder
  total impurity %: 0.24%
[2]; [6]
  maximum single impurity %: 0.08%
  property: white powder
  total impurity %: 0.25%
[2]; light 4500 lx±500 lx, 5 and 10 days
  stability under light condition (in words): degrades significantly
[2]; [7]
  maximum single impurity %: 4.66%
  property: light yellow powder
  total impurity %: 5.28%
[2]; [8]
  maximum single impurity %: 15.02%
  property: light yellow powder
  total impurity %: 15.25%
[3]; same method, aqueous dissolution medium
  dissolution rate (in words): basically zero

## CN([C@@H]1CCc2c(CC(=O)[O-])c3cccnc3n2C1)S(=O)(=O)c1ccc(F)cc1.[Li+] [Lithium salt hydrate]
[2]; 5 and 10 days
  stability under high temperature and high humidity conditions (in words): relatively stable
[2]; Day 0
  maximum single impurity %: 0.59%
  property: white powder
  total impurity %: 0.87%
[2]; high humidity 92.5% RH, Day 5
  maximum single impurity %: 0.55%
  property: white powder
  total impurity %: 0.72%
[2]; high humidity 92.5% RH, Day 10
  maximum single impurity %: 0.56%
  property: white powder
  total impurity %: 0.76%
[2]; high temperature 60° C., Day 5
  maximum single impurity %: 0.56%
  property: white powder
  total impurity %: 0.79%
[2]; [6]
  maximum single impurity %: 0.56%
  property: white powder
  total impurity %: 0.78%
[2]; [7]
  maximum single impurity %: 0.61%
  property: light yellow powder
  total impurity %: 0.93%
[2]; [8]
  maximum single impurity %: 0.78%
  property: light yellow powder
  total impurity %: 1.21%
[3]
  Dissolution rate, Mean (%), 5 min: 34.6%
  Dissolution rate, Mean (%), 10 min: 67.4%
  Dissolution rate, Mean (%), 15 min: 79.8%
  Dissolution rate, Mean (%), 20 min: 85.3%
  Dissolution rate, Mean (%), 30 min: 85.2%
  Dissolution rate, Mean (%), 45 min: 85.7%
  Dissolution rate, 5 min: 36.5% and 42.6% and 34.7% and 34.4% and 35.6% and 23.9%
  Dissolution rate, 10 min: 78.7% and 75.4% and 74.4% and 60.4% and 74.8% and 40.4%
  Dissolution rate, 15 min: 83.6% and 82.7% and 83.4% and 81.4% and 81.3% and 66.1%
  Dissolution rate, 20 min: 84.3% and 87% and 85.9% and 84.9% and 85.5% and 84.4%
  Dissolution rate, 30 min: 85.9% and 85.2% and 85.8% and 84.6% and 84.4% and 85.3%
  Dissolution rate, 45 min: 85.5% and 85.6% and 88.3% and 84.2% and 85.3%

## Cc1c(Cc2ccc3ccccc3n2)c2cc(F)ccc2n1CC(=O)O [OC459, reference compound]
Neutrophils [4]
  PGD2-induced neutrophils migration: inhibited
Neutrophils [5]
  neutrophils migration induced by 1 μM PGD2: significantly reduced

## CN([C@@H]1CCc2c(CC(=O)[O-])c3cccnc3n2C1)S(=O)(=O)c1ccc(F)cc1.[K+] [Potassium salt hydrate]
[2]; 5 and 10 days
  stability under high temperature and high humidity conditions (in words): relatively stable
[2]; Day 0
  maximum single impurity %: 0.34%
  property: white powder
  total impurity %: 0.49%
[2]; high humidity 92.5% RH, Day 5
  maximum single impurity %: 0.34%
  property: Molten solid
  total impurity %: 0.45%
[2]; high humidity 92.5% RH, Day 10
  maximum single impurity %: 0.31%
  property: colorless liquid
  total impurity %: 0.48%
[2]; high temperature 60° C., Day 5
  maximum single impurity %: 0.34%
  property: white powder
  total impurity %: 0.45%
[2]; [6]
  maximum single impurity %: 0.33%
  property: white powder
  total impurity %: 0.45%
[2]; [7]
  maximum single impurity %: 0.33%
  property: light yellow powder
  total impurity %: 0.72%
[2]; [8]
  maximum single impurity %: 0.33%
  property: light yellow powder
  total impurity %: 0.88%
[3]
  Dissolution rate, Mean (%), 5 min: 31.6%
  Dissolution rate, Mean (%), 10 min: 74.1%
  Dissolution rate, Mean (%), 15 min: 83.0%
  Dissolution rate, Mean (%), 20 min: 85.6%
  Dissolution rate, Mean (%), 30 min: 87.0%
  Dissolution rate, Mean (%), 45 min: 86.9%
  Dissolution rate, 5 min: 30.7% and 28.9% and 24.1% and 34.9% and 41.7% and 29.6%
  Dissolution rate, 10 min: 80.4% and 53.3% and 81.5% and 72.3% and 77.6% and 79.2%
  Dissolution rate, 15 min: 83.7% and 80.8% and 87.4% and 84.4% and 79.5% and 82.1%
  Dissolution rate, 20 min: 86.4% and 83.1% and 89.2% and 87.8% and 83.0% and 84.1%
  Dissolution rate, 30 min: 86.9% and 86.7% and 90.2% and 87.4% and 85.0% and 85.6%
  Dissolution rate, 45 min: 85.6% and 86.7% and 91.3% and 87.0% and 85.8% and 84.9%
